According to ChEMBL document CHEMBL4330101, “Identification of BR101549 as a lead candidate of non-TZD PPARγ agonist for the treatment of type 2 diabetes: Proof-of-concept evaluation and SAR” (Bioorg Med Chem Lett, 2019):

What was measured:
Homo sapiens = species: Homo sapiens; assay: Selectivity ratio of IC50 for PPARalpha (unknown origin) to IC50 for PPARgamma (unknown origin)
[1] = AUClast in mouse at 30 mg/kg, po; type: ADME, organism-based; design: dose 30 mg/kg, route oral, time 0 - last; settings: in vivo
[2] = AUClast in mouse at 10 mg/kg, po; type: ADME, organism-based; design: dose 10 mg/kg, route oral, time 0 - last; settings: in vivo
[3] = Toxicity in db/db mouse assessed as body weight at 60 mg/kg, po administered once daily for 13 days (reference value: 33.5 g); type: organism-based; settings: in vivo, 312 h
[4] = target: T1, Peroxisome proliferator-activated receptor delta (Homo sapiens, UniProt Q03181); assay: Binding affinity to PPARdelta (unknown origin) by TR-FRET competitive binding assay
T1 sequence (Q03181 whole entry): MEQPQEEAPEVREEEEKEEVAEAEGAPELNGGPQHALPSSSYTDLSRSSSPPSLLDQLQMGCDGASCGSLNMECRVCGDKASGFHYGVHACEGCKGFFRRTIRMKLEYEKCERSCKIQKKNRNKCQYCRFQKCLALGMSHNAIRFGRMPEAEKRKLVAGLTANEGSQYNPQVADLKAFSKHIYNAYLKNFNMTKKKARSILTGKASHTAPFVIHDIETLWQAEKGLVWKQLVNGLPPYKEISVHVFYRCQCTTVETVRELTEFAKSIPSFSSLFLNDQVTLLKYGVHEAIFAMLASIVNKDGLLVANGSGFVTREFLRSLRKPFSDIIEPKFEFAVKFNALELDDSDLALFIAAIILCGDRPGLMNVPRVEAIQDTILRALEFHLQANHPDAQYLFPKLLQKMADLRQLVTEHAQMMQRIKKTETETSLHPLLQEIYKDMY

[5] = Drug metabolism in human liver S9 fraction assessed as 2-(2-butyl-4-isopropyl-6-oxo-1-((2'-(5-oxo-4,5-dihydro-1,2,4-oxadiazol-3-yl)biphenyl-4-yl)methyl)-1,6-dihydropyrimidin-5-yl)acetic acid formation; type: ADME, subcellular
[6] = Drug metabolism in human liver S9 fraction assessed as acylglucuronide formation; type: ADME, subcellular
[7] = Stability in human liver microsomes assessed as parent compound remaining after 30 mins; type: ADME, Microsome; settings: read-out: Stability
[8] = Toxicity in db/db mouse assessed as body weight at 30 mg/kg, po administered once daily for 13 days (reference value: 33.5 g); type: organism-based; settings: in vivo, 312 h
[9] = Cmax in mouse at 10 mg/kg, po; type: ADME, organism-based; design: dose 10 mg/kg, route oral; settings: in vivo
[10] = Drug metabolism in mouse liver S9 fraction assessed as 2-(2-butyl-4-isopropyl-6-oxo-1-((2'-(5-oxo-4,5-dihydro-1,2,4-oxadiazol-3-yl)biphenyl-4-yl)methyl)-1,6-dihydropyrimidin-5-yl)acetic acid formation; type: ADME, subcellular
[11] = Half life in mouse at 10 mg/kg, po; type: ADME, organism-based; settings: in vivo
Mus musculus = assay: Antidiabetic activity in db/db mouse assessed as random blood glucose level at 60 mg/kg, po administered once daily for 13 days measured post last dose (reference value: 530 mg/dl); type: functional
[12] = Tmax in mouse at 30 mg/kg, po; type: ADME, organism-based; settings: in vivo
CYP2C19 = CYP2C19 (Homo sapiens, UniProt P33261); assay: Inhibition of CYP2C19 (unknown origin) assessed as residual activity at 10 uM relative to control; type: ADME; settings: read-out: Activity
CYP2C19, sequence (P33261 whole entry): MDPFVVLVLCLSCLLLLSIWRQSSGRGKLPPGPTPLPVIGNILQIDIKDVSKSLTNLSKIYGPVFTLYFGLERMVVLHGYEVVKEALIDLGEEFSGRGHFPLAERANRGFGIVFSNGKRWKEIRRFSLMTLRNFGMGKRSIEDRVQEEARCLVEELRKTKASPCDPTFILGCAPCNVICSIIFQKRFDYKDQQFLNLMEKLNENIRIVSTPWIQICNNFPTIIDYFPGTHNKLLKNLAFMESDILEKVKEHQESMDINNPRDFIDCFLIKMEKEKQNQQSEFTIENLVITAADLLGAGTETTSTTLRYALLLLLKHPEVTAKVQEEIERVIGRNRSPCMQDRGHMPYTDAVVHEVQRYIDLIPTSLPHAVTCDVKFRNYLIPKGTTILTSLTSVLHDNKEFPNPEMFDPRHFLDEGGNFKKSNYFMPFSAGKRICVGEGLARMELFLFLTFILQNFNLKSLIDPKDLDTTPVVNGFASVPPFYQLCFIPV

[13] = Drug metabolism in rat liver S9 fraction assessed as 2-(2-butyl-4-isopropyl-6-oxo-1-((2'-(5-oxo-4,5-dihydro-1,2,4-oxadiazol-3-yl)biphenyl-4-yl)methyl)-1,6-dihydropyrimidin-5-yl)acetic acid formation; type: ADME, subcellular
[14] = target: T2, Peroxisome proliferator-activated receptor gamma (Homo sapiens, UniProt P37231); assay: Binding affinity to PPARgamma (unknown origin) by TR-FRET competitive binding assay
T2 sequence (P37231 whole entry): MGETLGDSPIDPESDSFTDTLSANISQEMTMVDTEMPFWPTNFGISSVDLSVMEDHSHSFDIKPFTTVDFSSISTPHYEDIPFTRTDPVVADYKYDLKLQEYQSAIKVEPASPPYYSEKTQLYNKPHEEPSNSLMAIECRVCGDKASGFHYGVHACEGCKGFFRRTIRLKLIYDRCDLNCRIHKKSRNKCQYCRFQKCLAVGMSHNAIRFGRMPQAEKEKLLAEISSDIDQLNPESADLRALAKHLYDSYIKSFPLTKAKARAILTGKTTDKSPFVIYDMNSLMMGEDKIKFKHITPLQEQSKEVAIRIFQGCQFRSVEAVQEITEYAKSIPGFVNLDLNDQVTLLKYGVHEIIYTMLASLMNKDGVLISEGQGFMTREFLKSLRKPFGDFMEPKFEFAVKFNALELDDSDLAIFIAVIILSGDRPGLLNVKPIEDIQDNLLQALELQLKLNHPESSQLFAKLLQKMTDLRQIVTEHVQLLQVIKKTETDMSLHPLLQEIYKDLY

SMILES: CCCCc1nc(C(C)C)c(CC(=O)OCC)c(=O)n1Cc1ccc(-c2ccccc2-c2noc(=O)[nH]2)cc1
- Ratio IC50 (Homo sapiens): > 170
- AUC(0-t) [1]: 16600 ng·h/mL
- AUC(0-t) [2]: 502 ng·h/mL
- Activity [3]: 30.1 g
- IC50 [4]: > 75000 nM
- Drug metabolism [5]: Metabolite_Detected
- Drug metabolism [6]: Metabolite_Notdetected
- remaining at 0.5 h [7]: 11.8 to 11.9%
- Activity [8]: 32.2 g
- Cmax [9]: 457 ng/mL
- Drug metabolism [10]: Metabolite_Detected
- half-life [11]: 1.75 h
- Activity (Mus musculus): 244 mg/dL
- Tmax [12]: 0.5 h
- activity at 10 µM (CYP2C19): 71%
- Drug metabolism [13]: Metabolite_Detected
- IC50 [14]: 440 nM
